Source: patent EP4238972A1, “SUBSTITUTED 1,2,4-THIADIAZOLYL PICOLINAMIDES, SALTS OR N-OXIDES THEREOF AND THEIR USE AS HERBICIDALLY ACTIVE SUBSTANCES” (Bayer AG, priority 2022, dated 2023)

Legend:
Assay type in all cases: in vivo
Stellaria media [1] = assay: Herbicidal post-emergence action; conditions: 1280 g/ha, visual assessment after ca. 3 weeks vs untreated controls
From the text: (§1) Seeds of mono- and dicotyledonous weed plants were sown in plastic pots (double sowings with one species of mono- and one species of dicotyledonous weed plants per pot), in sandy loam, covered with soil and grown under controlled growth conditions. 2 to 3 weeks after sowing, the test plants were sprayed in the single-leaf stage. The compounds according to the invention, formulated in the form of wettable powders (WP) or as emulsifiable concentrates (EC), were sprayed onto the green plant parts as an aqueous suspension or as an emulsion, with the addition of 0.5% of an additive, at an application rate of 600 litres of water per hectare (converted). The test plants were placed in the greenhouse for ca. 3 weeks under optimum growth conditions, and then the effect of the preparations is assessed visually in comparison with untreated controls (herbicidal effect in percent (%): 100% effect = plants have died, 0% effect = as control plants).

Stellaria media [2] = assay: Herbicidal pre-emergence action; conditions: visual grading after ca. 3 weeks vs untreated controls
From the text: (§2) Seeds of mono- and dicotyledonous weed plants were sown in plastic pots (double sowings with one species of mono- and one species of dicotyledonous weed plants per pot), in sandy loam, and covered with soil. The compounds according to the invention, formulated in the form of wettable powders (WP) or as emulsifiable concentrates (EC), were applied to the surface of the covering soil as an aqueous suspension or as an emulsion, with the addition of 0.5% of an additive, at an application rate of 600 litres of water per hectare (converted). Following treatment, the pots were placed in a greenhouse and kept under optimum growth conditions for the test plants. The visual grading of the damage to the test plants is carried out after ca. 3 weeks in comparison to untreated controls (herbicidal effect in percent (%): 100% effect = plants have died, 0% effect = as control plants). Seeds of mono- and dicotyledonous weed plants were sown in plastic pots (double sowings with one species of mono- and one species of dicotyledonous weed plants per pot), in sandy loam, and covered with soil. The compounds according to the invention, formulated in the form of wettable powders (WP) or as emulsifiable concentrates (EC), were applied to the surface of the covering soil as an aqueous suspension or as an emulsion, with the addition of 0.5% of an additive, at an application rate of 600 litres of water per hectare (converted). Following treatment, the pots were placed in a greenhouse and kept under optimum growth conditions for the test plants. The visual grading of the damage to the test plants is carried out after ca. 3 weeks in comparison to untreated controls (herbicidal effect in percent (%): 100% effect = plants have died, 0% effect = as control plants).

Poa annua [3] = assay: Herbicidal pre-emergence action; conditions: visual grading after ca. 3 weeks vs untreated controls
From the text: as §2

Lolium rigidum [4] = assay: Herbicidal pre-emergence action; conditions: visual grading after ca. 3 weeks vs untreated controls
From the text: as §2

Amaranthus retroflexus [5] = assay: Herbicidal pre-emergence action; conditions: visual grading after ca. 3 weeks vs untreated controls
From the text: as §2

Poa annua [6] = assay: Herbicidal post-emergence action; conditions: visual assessment after ca. 3 weeks vs untreated controls
From the text: as §1, with “plants). Seeds of mono- and dicotyledonous weed plants were sown in plastic pots (double sowings with one species of mono- and one species of dicotyledonous weed plants per pot), in sandy loam, covered with soil and grown under controlled growth conditions. 2 to 3 weeks after sowing, the test plants were sprayed in the single-leaf stage. The compounds according to the invention, formulated in the form of wettable powders (WP) or as emulsifiable concentrates (EC), are sprayed onto the green plant parts as an aqueous suspension or as an emulsion, with the addition of 0.5% of an additive, at an application rate of 600 litres of water per hectare (converted). The test plants were placed in the greenhouse for ca. 3 weeks under optimum growth conditions, and then the effect of the preparations is assessed visually in comparison with untreated controls (herbicidal effect in percent (%): 100% effect = plants have died, 0% effect = as control plants).” for “plants).”

Amaranthus retroflexus [7] = assay: Herbicidal post-emergence action; conditions: visual assessment after ca. 3 weeks vs untreated controls
From the text: as §1, with “plants). Seeds of mono- and dicotyledonous weed plants were sown in plastic pots (double sowings with one species of mono- and one species of dicotyledonous weed plants per pot), in sandy loam, covered with soil and grown under controlled growth conditions. 2 to 3 weeks after sowing, the test plants were sprayed in the single-leaf stage. The compounds according to the invention, formulated in the form of wettable powders (WP) or as emulsifiable concentrates (EC), are sprayed onto the green plant parts as an aqueous suspension or as an emulsion, with the addition of 0.5% of an additive, at an application rate of 600 litres of water per hectare (converted). The test plants were placed in the greenhouse for ca. 3 weeks under optimum growth conditions, and then the effect of the preparations is assessed visually in comparison with untreated controls (herbicidal effect in percent (%): 100% effect = plants have died, 0% effect = as control plants).” for “plants).”

Kochia scoparia = assay: Herbicidal post-emergence action; conditions: visual assessment after ca. 3 weeks vs untreated controls
From the text: as §1, with “plants). Seeds of mono- and dicotyledonous weed plants were sown in plastic pots (double sowings with one species of mono- and one species of dicotyledonous weed plants per pot), in sandy loam, covered with soil and grown under controlled growth conditions. 2 to 3 weeks after sowing, the test plants were sprayed in the single-leaf stage. The compounds according to the invention, formulated in the form of wettable powders (WP) or as emulsifiable concentrates (EC), are sprayed onto the green plant parts as an aqueous suspension or as an emulsion, with the addition of 0.5% of an additive, at an application rate of 600 litres of water per hectare (converted). The test plants were placed in the greenhouse for ca. 3 weeks under optimum growth conditions, and then the effect of the preparations is assessed visually in comparison with untreated controls (herbicidal effect in percent (%): 100% effect = plants have died, 0% effect = as control plants).” for “plants).”

Matricaria inodora [8] = assay: Herbicidal post-emergence action; conditions: 1280 g/ha, visual assessment after ca. 3 weeks vs untreated controls
From the text: as §1

Alopecurus myosuroides = assay: Herbicidal post-emergence action; conditions: 1280 g/ha, visual assessment after ca. 3 weeks vs untreated controls
From the text: as §1

Lolium rigidum [9] = assay: Herbicidal post-emergence action; conditions: 1280 g/ha, visual assessment after ca. 3 weeks vs untreated controls
From the text: as §1

Echinochloa crus-galli [10] = assay: Herbicidal pre-emergence action; conditions: 1280 g/ha, visual grading after ca. 3 weeks vs untreated controls
From the text: (§3) Seeds of mono- and dicotyledonous weed plants were sown in plastic pots (double sowings with one species of mono- and one species of dicotyledonous weed plants per pot), in sandy loam, and covered with soil. The compounds according to the invention, formulated in the form of wettable powders (WP) or as emulsifiable concentrates (EC), were applied to the surface of the covering soil as an aqueous suspension or as an emulsion, with the addition of 0.5% of an additive, at an application rate of 600 litres of water per hectare (converted). Following treatment, the pots were placed in a greenhouse and kept under optimum growth conditions for the test plants. The visual grading of the damage to the test plants is carried out after ca. 3 weeks in comparison to untreated controls (herbicidal effect in percent (%): 100% effect = plants have died, 0% effect = as control plants).

Setaria viridis [11] = assay: Herbicidal pre-emergence action; conditions: 1280 g/ha, visual grading after ca. 3 weeks vs untreated controls
From the text: as §3

Matricaria inodora [12] = assay: Herbicidal pre-emergence action; conditions: visual grading after ca. 3 weeks vs untreated controls
From the text: as §2

Veronica persica [13] = assay: Herbicidal post-emergence action; conditions: visual assessment after ca. 3 weeks vs untreated controls
From the text: as §1, with “plants). Seeds of mono- and dicotyledonous weed plants were sown in plastic pots (double sowings with one species of mono- and one species of dicotyledonous weed plants per pot), in sandy loam, covered with soil and grown under controlled growth conditions. 2 to 3 weeks after sowing, the test plants were sprayed in the single-leaf stage. The compounds according to the invention, formulated in the form of wettable powders (WP) or as emulsifiable concentrates (EC), are sprayed onto the green plant parts as an aqueous suspension or as an emulsion, with the addition of 0.5% of an additive, at an application rate of 600 litres of water per hectare (converted). The test plants were placed in the greenhouse for ca. 3 weeks under optimum growth conditions, and then the effect of the preparations is assessed visually in comparison with untreated controls (herbicidal effect in percent (%): 100% effect = plants have died, 0% effect = as control plants).” for “plants).”

Setaria viridis [14] = assay: Herbicidal post-emergence action; conditions: visual assessment after ca. 3 weeks vs untreated controls
From the text: as §1, with “plants). Seeds of mono- and dicotyledonous weed plants were sown in plastic pots (double sowings with one species of mono- and one species of dicotyledonous weed plants per pot), in sandy loam, covered with soil and grown under controlled growth conditions. 2 to 3 weeks after sowing, the test plants were sprayed in the single-leaf stage. The compounds according to the invention, formulated in the form of wettable powders (WP) or as emulsifiable concentrates (EC), are sprayed onto the green plant parts as an aqueous suspension or as an emulsion, with the addition of 0.5% of an additive, at an application rate of 600 litres of water per hectare (converted). The test plants were placed in the greenhouse for ca. 3 weeks under optimum growth conditions, and then the effect of the preparations is assessed visually in comparison with untreated controls (herbicidal effect in percent (%): 100% effect = plants have died, 0% effect = as control plants).” for “plants).”

Veronica persica [15] = assay: Herbicidal pre-emergence action; conditions: 1280 g/ha, visual grading after ca. 3 weeks vs untreated controls
From the text: as §3

Echinochloa crus-galli [16] = assay: Herbicidal post-emergence action; conditions: 1280 g/ha, visual assessment after ca. 3 weeks vs untreated controls
From the text: as §1

O=C(Nc1ncns1)c1nc(Cl)ccc1OC(F)(F)F [Example I-013, 6-chloro-N-(1,2,4-thiadiazol-5-yl)-3-(trifluoromethoxy)pyridine-2-carboxamide]
herbicidal effect STEME (Stellaria media [1]): 90% | herbicidal effect STEME (Stellaria media [2]; 1280 g/ha): 90% | herbicidal effect POAAN (Poa annua [3]; 320 g/ha): 100% | herbicidal effect POAAN (Poa annua [3]; 1280 g/ha): 100% | herbicidal effect LOLRI (Lolium rigidum [4]; 1280 g/ha): 90% | herbicidal effect AMARE (Amaranthus retroflexus [5]; 320 g/ha): 90% | herbicidal effect AMARE (Amaranthus retroflexus [5]; 1280 g/ha): 100% | herbicidal effect POAAN (Poa annua [6]; 320 g/ha): 90% | herbicidal effect POAAN (Poa annua [6]; 1280 g/ha): 100% | herbicidal effect AMARE (Amaranthus retroflexus [7]; 1280 g/ha): 100% | herbicidal effect KCHSC (Kochia scoparia; 320 g/ha): 90% | herbicidal effect KCHSC (Kochia scoparia; 1280 g/ha): 100%

O=C(Nc1nc(Cl)ns1)c1nc(F)ccc1Br [Example I-017, 3-bromo-N-(3-chloro-1,2,4-thiadiazol-5-yl)-6-fluoro-pyridine-2-carboxamide]
herbicidal effect MATIN (Matricaria inodora [8]): 90% | herbicidal effect ALOMY (Alopecurus myosuroides): 90% | herbicidal effect STEME (Stellaria media [1]): 90% | herbicidal effect LOLRI (Lolium rigidum [9]): 90% | herbicidal effect ECHCG (Echinochloa crus-galli [10]): 90% | herbicidal effect SETVI (Setaria viridis [11]): 100% | herbicidal effect MATIN (Matricaria inodora [12]; 320 g/ha): 100% | herbicidal effect MATIN (Matricaria inodora [12]; 1280 g/ha): 100% | herbicidal effect STEME (Stellaria media [2]; 320 g/ha): 90% | herbicidal effect STEME (Stellaria media [2]; 1280 g/ha): 90% | herbicidal effect POAAN (Poa annua [3]; 320 g/ha): 90% | herbicidal effect POAAN (Poa annua [3]; 1280 g/ha): 90% | herbicidal effect LOLRI (Lolium rigidum [4]; 320 g/ha): 90% | herbicidal effect LOLRI (Lolium rigidum [4]; 1280 g/ha): 90% | herbicidal effect AMARE (Amaranthus retroflexus [5]; 1280 g/ha): 100% | herbicidal effect POAAN (Poa annua [6]; 320 g/ha): 90% | herbicidal effect POAAN (Poa annua [6]; 1280 g/ha): 90% | herbicidal effect VERPE (Veronica persica [13]; 320 g/ha): 90% | herbicidal effect VERPE (Veronica persica [13]; 1280 g/ha): 90% | herbicidal effect SETVI (Setaria viridis [14]; 320 g/ha): 90% | herbicidal effect SETVI (Setaria viridis [14]; 1280 g/ha): 90% | herbicidal effect AMARE (Amaranthus retroflexus [7]; 320 g/ha): 90% | herbicidal effect AMARE (Amaranthus retroflexus [7]; 1280 g/ha): 90% | herbicidal effect KCHSC (Kochia scoparia; 320 g/ha): 90% | herbicidal effect KCHSC (Kochia scoparia; 1280 g/ha): 90%

O=C(Nc1ncns1)c1ncc(Cl)cc1C(F)(F)F [Example I-036, 5-chloro-N-(1,2,4-thiadiazol-5-yl)-3-(trifluoromethyl)pyridine-2-carboxamide]
herbicidal effect VERPE (Veronica persica [15]): 90% | herbicidal effect AMARE (Amaranthus retroflexus [5]; 1280 g/ha): 90% | herbicidal effect VERPE (Veronica persica [13]; 1280 g/ha): 90% | herbicidal effect AMARE (Amaranthus retroflexus [7]; 1280 g/ha): 90%

O=C(Nc1ncns1)c1nc(Cl)ccc1Br [Example I-039, 3-bromo-6-chloro-N-(1,2,4-thiadiazol-5-yl)pyridine-2-carboxamide]
herbicidal effect ECHCG (Echinochloa crus-galli [16]): 90% | herbicidal effect STEME (Stellaria media [1]): 90% | herbicidal effect ECHCG (Echinochloa crus-galli [10]): 90% | herbicidal effect MATIN (Matricaria inodora [12]; 1280 g/ha): 100% | herbicidal effect STEME (Stellaria media [2]; 1280 g/ha): 90% | herbicidal effect POAAN (Poa annua [3]; 1280 g/ha): 90% | herbicidal effect AMARE (Amaranthus retroflexus [5]; 1280 g/ha): 100% | herbicidal effect POAAN (Poa annua [6]; 320 g/ha): 90% | herbicidal effect POAAN (Poa annua [6]; 1280 g/ha): 90% | herbicidal effect VERPE (Veronica persica [13]; 320 g/ha): 90% | herbicidal effect VERPE (Veronica persica [13]; 1280 g/ha): 100% | herbicidal effect SETVI (Setaria viridis [14]; 1280 g/ha): 90% | herbicidal effect AMARE (Amaranthus retroflexus [7]; 320 g/ha): 100% | herbicidal effect AMARE (Amaranthus retroflexus [7]; 1280 g/ha): 100%
